From the NIST ThermoML archive (doi:10.1021/je060271a)

Details: 283.15 K, Liquid, Vibrating tube method

CCCCCC(=O)OCC(COC(=O)CCCCC)(COC(=O)CCCCC)COC(=O)CCCCC [pentaerythritol tetrahexanoate]
Details | mass density [kg/m3]
30604 kPa | 1021
30620 kPa | 1020.9
30636 kPa | 1020.9
30656 kPa | 1021.1
30672 kPa | 1020.9
30688 kPa | 1021
30708 kPa | 1020.9
30724 kPa | 1021
30740 kPa | 1021
30757 kPa | 1021
30777 kPa | 1020.9
30793 kPa | 1021.1
30809 kPa | 1021
30829 kPa | 1021
30846 kPa | 1021.1
30882 kPa | 1021
30934 kPa | 1021.1
30951 kPa | 1021.1
30967 kPa | 1021.1
30987 kPa | 1021
31003 kPa | 1021.3
31020 kPa | 1021.2
31040 kPa | 1021.1
31056 kPa | 1021.2
31073 kPa | 1021.1
31093 kPa | 1021.1
31110 kPa | 1021.1
31127 kPa | 1021.2
31147 kPa | 1021.2
31164 kPa | 1021.2
31180 kPa | 1021.2
31201 kPa | 1021.3
31217 kPa | 1021.3
31234 kPa | 1021.3
31254 kPa | 1021.3
31272 kPa | 1021.2
31289 kPa | 1021.2
31306 kPa | 1021.2
31327 kPa | 1021.3
31343 kPa | 1021.3
31361 kPa | 1021.3
31378 kPa | 1021.3
31398 kPa | 1021.4
31415 kPa | 1021.3
31432 kPa | 1021.4
31453 kPa | 1021.5
31470 kPa | 1021.4
31488 kPa | 1021.5
31509 kPa | 1021.5
31528 kPa | 1021.5
31545 kPa | 1021.6
31562 kPa | 1021.5
31583 kPa | 1021.3
31600 kPa | 1021.4
31618 kPa | 1021.5
31639 kPa | 1021.5
31656 kPa | 1021.5
31674 kPa | 1021.5
31691 kPa | 1021.5
31712 kPa | 1021.6
31730 kPa | 1021.4
31748 kPa | 1021.6
31770 kPa | 1021.4
31787 kPa | 1021.5
31805 kPa | 1021.5
31823 kPa | 1021.6
31845 kPa | 1021.5
31863 kPa | 1021.6
31881 kPa | 1021.5
31902 kPa | 1021.5
31920 kPa | 1021.4
31942 kPa | 1021.6
